Experimental data published in patent US20230248834A1, “DEGRADATION OF (EGFR) BY CONJUGATION OF EGFR INHIBITORS WITH E3 LIGASE LIGAND AND METHODS OF USE” (BEIGENE, LTD., priority 2020, published 2023).

Assays:
EGFR L858R/T790M/C797S = molecular target: T1, EGFR L858R/T790M/C797S (Homo sapiens, UniProt P00533, C797S/L858R/T790M); experiment: EGFR degradation HTRF assay in BaF3-LTC cells; type: cell-based; conditions: BaF3-LTC (L858R/T790M/C797S), maximum percentage of inhibition (degradation); read-out: BaF3-LTC Dmax (%)
T1 construct: expressed in transfected cells; host or cells: BaF3-LTC
Method in brief: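 BaF3 cells expressing EGFR L858R/C797S or L858R/T790M/C797S treated 16 h at 37 °C with compounds (top 10 uM, 5-fold, 8 doses; 0.2% DMSO). Remaining EGFR quantified by HTRF in lysates after overnight antibody incubation. Degradation percentage versus DMSO controls; DC50 from four-parameter fit, Dmax as maximal degradation.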

EGFR L858R/C797S = molecular target: T2, EGFR L858R/C797S (Homo sapiens, UniProt P00533, C797S/L858R); experiment: EGFR degradation HTRF assay in BaF3 LC cells; type: cell-based; conditions: BaF3 LC (L858R/C797S), maximum percentage of inhibition (degradation); read-out: BaF3 LC Dmax (%)
T2 construct: expressed in transfected cells; host or cells: BaF3 LC
Procedure: BaF3-LTC(L858R/T790M/C797S) cells and BaF3 LC(L858R/C797S) cells are treated with compounds diluted in 0.2% DMSO cell culture medium and incubate for 16 h, 37° C., 5% CO2. the final concentration of compounds in all assay is start with 10 uM, 5-fold dilution, total 8 doses were included.
After 16 h treatment, add HTRF lysis buffer to each well; seal the plate and incubate 1 hour at room temperature on a plate shaker; Once the cells are lysed, 16 μL of cell lysate are transferred to a PE 384-well HTRF detection plate; 4 μL of pre-mixed HTRF antibodies are added to each well; Cover the plate with a plate sealer, spin 1000 rpm for 1 min, Incubate overnight at room temperature; Read on BMG PheraStar with HTRF protocol (337 nm-665 nm-620 nm).
The inhibition (degradation) percentage of the compound was calculated by the following equation: Inhibition percentage of Compound=100−100×(Signal−low control)/(High control−low control), wherein signal=each test compound group
High control=Cell group with added DMSO and without compound, indicating microplate readings without EGFR degradation;
Dmax is the maximum percentage of inhibition (degradation).
The IC50 (DC50) value of a compound can be obtained by fitting the following equation
Y=Bottom+(TOP−Bottom)/(1+((IC50/X)^hillslope))
Wherein, X and Y are known values, and IC50, Hillslope, Top and Bottom are the parameters obtained by fitting with software. Y is the inhibition percentage (calculated from the equation), X is the concentration of the compound; IC50 is the concentration of the compound when the 50% inhibition is reached. The smaller the IC50 value is, the stronger the inhibitory ability of the compound is. Vice versa, the higher the IC50 value is, the weaker the inhibitory ability of the compound is; Hillslope represents the slope of the fitted curve, generally around 1*; Bottom represents the minimum value of the curve obtained by data fitting, which is generally 0%±20%; Top represents the maximum value of the curve obtained by data fitting, which is generally 100%±20%. The experimental data were fitted by calculating and analyzing with Dotmatics data analysis software.

T1 sequence (P00533 25-1210 T790M/C797S/L858R): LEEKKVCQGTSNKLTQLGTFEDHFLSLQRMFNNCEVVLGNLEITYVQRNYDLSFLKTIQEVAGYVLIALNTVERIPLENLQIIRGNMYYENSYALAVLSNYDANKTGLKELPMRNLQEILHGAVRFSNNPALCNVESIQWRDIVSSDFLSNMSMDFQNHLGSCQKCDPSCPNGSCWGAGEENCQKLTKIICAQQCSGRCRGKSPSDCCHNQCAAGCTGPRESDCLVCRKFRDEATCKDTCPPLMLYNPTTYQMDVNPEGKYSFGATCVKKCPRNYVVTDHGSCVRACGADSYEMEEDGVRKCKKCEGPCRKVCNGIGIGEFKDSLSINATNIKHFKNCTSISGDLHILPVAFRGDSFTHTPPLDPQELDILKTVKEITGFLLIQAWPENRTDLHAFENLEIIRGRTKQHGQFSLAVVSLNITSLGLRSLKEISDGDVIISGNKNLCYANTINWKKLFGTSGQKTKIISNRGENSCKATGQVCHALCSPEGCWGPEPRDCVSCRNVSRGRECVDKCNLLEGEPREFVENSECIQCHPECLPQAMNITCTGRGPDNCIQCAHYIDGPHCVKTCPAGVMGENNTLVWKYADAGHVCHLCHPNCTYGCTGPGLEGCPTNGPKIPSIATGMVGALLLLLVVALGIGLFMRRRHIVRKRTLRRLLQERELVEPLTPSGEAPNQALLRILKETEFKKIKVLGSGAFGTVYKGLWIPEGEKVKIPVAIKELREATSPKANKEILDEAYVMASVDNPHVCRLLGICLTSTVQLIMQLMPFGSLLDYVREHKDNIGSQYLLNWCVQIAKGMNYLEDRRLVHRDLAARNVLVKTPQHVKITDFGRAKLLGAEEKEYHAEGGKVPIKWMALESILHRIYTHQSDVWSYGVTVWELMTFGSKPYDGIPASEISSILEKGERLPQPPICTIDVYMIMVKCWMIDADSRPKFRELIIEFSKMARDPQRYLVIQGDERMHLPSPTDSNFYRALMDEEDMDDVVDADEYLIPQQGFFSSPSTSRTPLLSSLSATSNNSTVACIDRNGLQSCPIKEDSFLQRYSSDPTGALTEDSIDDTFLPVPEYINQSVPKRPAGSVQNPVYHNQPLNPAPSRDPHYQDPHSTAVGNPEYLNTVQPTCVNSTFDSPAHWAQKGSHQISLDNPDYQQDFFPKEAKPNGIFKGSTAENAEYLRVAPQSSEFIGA
T2 sequence (P00533 25-1210 C797S/L858R): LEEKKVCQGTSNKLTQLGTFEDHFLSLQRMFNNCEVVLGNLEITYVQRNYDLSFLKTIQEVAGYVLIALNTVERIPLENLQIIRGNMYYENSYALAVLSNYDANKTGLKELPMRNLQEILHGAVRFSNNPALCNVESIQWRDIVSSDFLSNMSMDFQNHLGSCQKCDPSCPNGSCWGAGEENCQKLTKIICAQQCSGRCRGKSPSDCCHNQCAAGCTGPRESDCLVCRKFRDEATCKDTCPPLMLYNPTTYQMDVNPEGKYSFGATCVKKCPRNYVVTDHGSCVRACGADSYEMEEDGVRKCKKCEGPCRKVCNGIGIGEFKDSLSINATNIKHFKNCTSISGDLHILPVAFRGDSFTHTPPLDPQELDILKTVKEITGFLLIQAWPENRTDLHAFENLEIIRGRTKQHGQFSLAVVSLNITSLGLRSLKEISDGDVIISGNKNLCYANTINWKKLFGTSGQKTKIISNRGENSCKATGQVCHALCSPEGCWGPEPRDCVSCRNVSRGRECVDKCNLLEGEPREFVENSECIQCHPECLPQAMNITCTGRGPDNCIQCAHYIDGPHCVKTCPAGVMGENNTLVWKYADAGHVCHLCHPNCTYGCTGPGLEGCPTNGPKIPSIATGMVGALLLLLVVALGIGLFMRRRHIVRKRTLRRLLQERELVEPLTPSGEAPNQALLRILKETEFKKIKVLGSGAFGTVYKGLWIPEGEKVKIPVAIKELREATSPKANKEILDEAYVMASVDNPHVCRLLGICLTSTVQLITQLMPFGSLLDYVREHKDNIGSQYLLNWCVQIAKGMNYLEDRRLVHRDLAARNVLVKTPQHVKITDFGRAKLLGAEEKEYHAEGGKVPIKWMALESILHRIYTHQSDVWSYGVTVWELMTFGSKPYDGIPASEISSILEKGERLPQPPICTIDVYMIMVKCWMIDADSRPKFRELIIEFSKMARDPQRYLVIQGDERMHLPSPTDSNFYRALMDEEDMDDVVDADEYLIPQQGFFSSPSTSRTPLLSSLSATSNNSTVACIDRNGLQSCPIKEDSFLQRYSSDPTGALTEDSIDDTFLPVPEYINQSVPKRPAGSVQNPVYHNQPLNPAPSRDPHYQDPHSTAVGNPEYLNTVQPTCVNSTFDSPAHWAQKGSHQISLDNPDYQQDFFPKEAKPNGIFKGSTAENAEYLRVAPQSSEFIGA

SMILES: CCOc1cc(N2CCC(N3CCN(CCc4ccc(F)c5c4oc(=O)n5C4CCC(=O)NC4=O)CC3)CC2)c(CC)cc1Nc1ncc(Br)c(Nc2ccc3nc(CC)ccc3c2P(C)(C)=O)n1 (centres unmarked) [Example 505, 3-(7-(2-(4-(1-(4-((5-bromo-4-((5-(dimethylphosphoryl)-2-ethylquinolin-6-yl)amino)pyrimidin-2-yl)amino)-5-ethoxy-2-ethylphenyl)piperidin-4-yl)piperazin-1-yl)ethyl)-4-fluoro-2-oxobenzo[d]oxazol-3(2H)-yl)piperidine-2,6-dione]
- Dmax (EGFR L858R/T790M/C797S): 75.1%
- Dmax (EGFR L858R/C797S): 83.2%

SMILES: CCc1ncc2c(P(C)(C)=O)c(Nc3nc(Nc4cc(CC)c(N5CCC(N6CCN(C(=O)[C@@H]7CCN(c8cc(F)c([C@H]9CCC(=O)NC9=O)c(F)c8)C7)CC6)CC5)cc4OC)ncc3Br)ccc2n1 [Example 549, (R)-3-(4-((R)-3-(4-(1-(4-((5-bromo-4-((5-(dimethylphosphoryl)-2-ethylquinazolin-6-yl)amino)pyrimidin-2-yl)amino)-2-ethyl-5-methoxyphenyl)piperidin-4-yl)piperazine-1-carbonyl)pyrrolidin-1-yl)-2,6-difluorophenyl)piperidine-2,6-dione]
- Dmax (EGFR L858R/T790M/C797S): 90.4%
- Dmax (EGFR L858R/C797S): 87.2%

SMILES: CCOc1cc(N2CCC(N3CCN(CC4CN(c5cc(F)c([C@H]6CCC(=O)NC6=O)c(F)c5)C4)CC3)CC2)c(CC)cc1Nc1ncc(Br)c(Nc2ccc3c(=O)n(CC)ncc3c2P(C)(C)=O)n1 [Example 551, (R)-3-(4-(3-((4-(1-(4-((5-bromo-4-((5-(dimethylphosphoryl)-2-ethyl-1-oxo-1,2-dihydrophthalazin-6-yl)amino)pyrimidin-2-yl)amino)-5-ethoxy-2-ethylphenyl)piperidin-4-yl)piperazin-1-yl)methyl)azetidin-1-yl)-2,6-difluorophenyl)piperidine-2,6-dione]
- Dmax (EGFR L858R/T790M/C797S): 89.7%
- Dmax (EGFR L858R/C797S): 86.8%

SMILES: CCOc1cc(N2CCC(N3CCN(CCc4c(F)ccc5c4n(CC)c(=O)n5C4CCC(=O)NC4=O)CC3)CC2)c(CC)cc1Nc1ncc(Br)c(Nc2ccc3c(=O)n(CC)ncc3c2P(C)(C)=O)n1 (centres unmarked) [Example 559, 3-(4-(2-(4-(1-(4-((5-bromo-4-((5-(dimethylphosphoryl)-2-ethyl-1-oxo-1,2-dihydrophthalazin-6-yl)amino)pyrimidin-2-yl)amino)-5-ethoxy-2-ethylphenyl)piperidin-4-yl)piperazin-1-yl)ethyl)-3-ethyl-5-fluoro-2-oxo-2,3-dihydro-1H-benzo[d]imidazol-1-yl)piperidine-2,6-dione]
- Dmax (EGFR L858R/T790M/C797S): 92.4%
- Dmax (EGFR L858R/C797S): 90.4%

SMILES: CCOc1cc(N2CCC(N3CCN(CCc4cccc5c4C4(CC4)C(=O)N5C4CCC(=O)NC4=O)CC3)CC2)c(CC)cc1Nc1ncc(Br)c(Nc2ccc3nc(CC)ccc3c2P(C)(C)=O)n1 (centres unmarked) [Example 571, 3-(4′-(2-(4-(1-(4-((5-bromo-4-((5-(dimethylphosphoryl)-2-ethylquinolin-6-yl)amino)pyrimidin-2-yl)amino)-5-ethoxy-2-ethylphenyl)piperidin-4-yl)piperazin-1-yl)ethyl)-2′-oxospiro[cyclopropane-1,3′-indolin]-1′-yl)piperidine-2,6-dione]
- Dmax (EGFR L858R/T790M/C797S): 93.2%
- Dmax (EGFR L858R/C797S): 87.7%

SMILES: CCOc1cc(N2CCC(N3CCN(CCc4cccc5c4C(C)(C)C(=O)N5C4CCC(=O)NC4=O)CC3)CC2)c(CC)cc1Nc1ncc(Br)c(Nc2ccc3nc(CC)ccc3c2P(C)(C)=O)n1 (centres unmarked) [Example 572, 3-(4-(2-(4-(1-(4-((5-bromo-4-((5-(dimethylphosphoryl)-2-ethylquinolin-6-yl)amino)pyrimidin-2-yl)amino)-5-ethoxy-2-ethylphenyl)piperidin-4-yl)piperazin-1-yl)ethyl)-3,3-dimethyl-2-oxoindolin-1-yl)piperidine-2,6-dione]
- Dmax (EGFR L858R/T790M/C797S): 90.3%
- Dmax (EGFR L858R/C797S): 91.8%

SMILES: CCc1cc(Nc2ncc(Br)c(Nc3ccc4nc(C)c(F)cc4c3P(C)(C)=O)n2)c(OC)cc1N1CCC(N2CCN(C(=O)[C@H]3CN(c4cc(F)c([C@H]5CCC(=O)NC5=O)c(F)c4)CC3(C)C)CC2)CC1 [Example 576, (R)-3-(4-((R)-4-(4-(1-(4-((5-bromo-4-((5-(dimethylphosphoryl)-3-fluoro-2-methylquinolin-6-yl)amino)pyrimidin-2-yl)amino)-2-ethyl-5-methoxyphenyl)piperidin-4-yl)piperazine-1-carbonyl)-3,3-dimethylpyrrolidin-1-yl)-2,6-difluorophenyl)piperidine-2,6-dione]
- Dmax (EGFR L858R/T790M/C797S): 92.2%
- Dmax (EGFR L858R/C797S): 95.9%

SMILES: CCOc1cc(N2CCC(N3CCN(C(=O)[C@@H]4CCN(c5cc(F)c([C@H]6CCC(=O)NC6=O)c(F)c5)C4)CC3)CC2)c(CC)cc1Nc1ncc(Br)c(Nc2ccc3nc(C)c(F)cc3c2P(C)(C)=O)n1 [Example 577, (R)-3-(4-((R)-3-(4-(1-(4-((5-bromo-4-((5-(dimethylphosphoryl)-3-fluoro-2-methylquinolin-6-yl)amino)pyrimidin-2-yl)amino)-5-ethoxy-2-ethylphenyl)piperidin-4-yl)piperazine-1-carbonyl)pyrrolidin-1-yl)-2,6-difluorophenyl)piperidine-2,6-dione]
- Dmax (EGFR L858R/T790M/C797S): 88.6%
- Dmax (EGFR L858R/C797S): 89.1%

SMILES: CCc1ccc2c(P(C)(C)=O)c(Nc3nc(Nc4cc(C)c(N5CCC(N6CCN(CCc7cccc8c7n(C)c(=O)n8C7CCC(=O)NC7=O)CC6)CC5)cc4OC4CC4)ncc3Br)ccc2n1 (centres unmarked) [Example 584, 3-(4-(2-(4-(1-(4-((5-bromo-4-((5-(dimethylphosphoryl)-2-ethylquinolin-6-yl)amino)pyrimidin-2-yl)amino)-5-cyclopropoxy-2-methylphenyl)piperidin-4-yl)piperazin-1-yl)ethyl)-3-methyl-2-oxo-2,3-dihydro-1H-benzo[d]imidazol-1-yl)piperidine-2,6-dione]
- Dmax (EGFR L858R/T790M/C797S): 95.6%
- Dmax (EGFR L858R/C797S): 92.8%

SMILES: CCc1ncc2c(P(C)(C)=O)c(Nc3nc(Nc4cc(CC)c(N5CCC(N6CCN(CCc7cc(F)c([C@H]8CCC(=O)NC8=O)c(F)c7)CC6)CC5)cc4OC)ncc3Br)ccc2n1 [Example 589, (R)-3-(4-(2-(4-(1-(4-((5-bromo-4-((5-(dimethylphosphoryl)-2-ethylquinazolin-6-yl)amino)pyrimidin-2-yl)amino)-2-ethyl-5-methoxyphenyl)piperidin-4-yl)piperazin-1-yl)ethyl)-2,6-difluorophenyl)piperidine-2,6-dione]
- Dmax (EGFR L858R/T790M/C797S): 85.9%
- Dmax (EGFR L858R/C797S): 92.4%

SMILES: CCOc1cc(N2CCC(N3CCN(CCc4cccc5c4n(CC)c(=O)n5C4CCC(=O)NC4=O)CC3)CC2)c(CC)cc1Nc1ncc(Br)c(Nc2cc(F)c3nc(CC)ccc3c2P(C)(C)=O)n1 (centres unmarked) [Example 643, 3-(4-(2-(4-(1-(4-((5-bromo-4-((5-(dimethylphosphoryl)-2-ethyl-8-fluoroquinolin-6-yl)amino)pyrimidin-2-yl)amino)-5-ethoxy-2-ethylphenyl)piperidin-4-yl)piperazin-1-yl)ethyl)-3-ethyl-2-oxo-2,3-dihydro-1H-benzo[d]imidazol-1-yl)piperidine-2,6-dione]
- Dmax (EGFR L858R/T790M/C797S): 91.2%
- Dmax (EGFR L858R/C797S): 94.1%

SMILES: CCc1cc(Nc2ncc(Br)c(Nc3ccc4nc(C)ccc4c3P(C)(C)=O)n2)c(OC)cc1N1CCC(N2CCN(C(=O)[C@@H]3CCN(c4cc(F)c([C@H]5CCC(=O)NC5=O)c(F)c4)C3)CC2)CC1 [Example 750, (R)-3-(4-((R)-3-(4-(1-(4-((5-bromo-4-((5-(dimethylphosphoryl)-2-methylquinolin-6-yl)amino)pyrimidin-2-yl)amino)-2-ethyl-5-methoxyphenyl)piperidin-4-yl)piperazine-1-carbonyl)pyrrolidin-1-yl)-2,6-difluorophenyl)piperidine-2,6-dione]
- Dmax (EGFR L858R/T790M/C797S): 95.4%
- Dmax (EGFR L858R/C797S): 94.3%

SMILES: CCOc1cc(N2CCC(N3CCN(CCc4cccc5c4n(C)c(=O)n5C4CCC(=O)NC4=O)CC3)CC2)c(CC)cc1Nc1ncc(Br)c(Nc2ccc3nc(CC)ccc3c2P(C)(C)=O)n1 (centres unmarked) [Example 752, 3-(4-(2-(4-(1-(4-((5-bromo-4-((5-(dimethylphosphoryl)-2-ethylquinolin-6-yl)amino)pyrimidin-2-yl)amino)-5-ethoxy-2-ethylphenyl)piperidin-4-yl)piperazin-1-yl)ethyl)-3-methyl-2-oxo-2,3-dihydro-1H-benzo[d]imidazol-1-yl)piperidine-2,6-dione]
- Dmax (EGFR L858R/T790M/C797S): 94.7%
- Dmax (EGFR L858R/C797S): 94%
